Assay results as given in patent US8445510B2, “Fused bicyclic kinase inhibitors” (OSI Pharmaceuticals, LLC, priority 2011, dated 2013).

Legend:
RON = target: T1, RON (Homo sapiens, UniProt Q04912); experiment: sfRON cell mechanistic assay (HeLa), phosphorylated RON ELISA; assay type: cell-based; conditions: HeLa cells transfected with sfRON; inhibition of phosphorylated RON; four hours incubation; at least duplicate experiments; read-out: sfRON mech IC50
T1 sequence (Q04912 913-1400): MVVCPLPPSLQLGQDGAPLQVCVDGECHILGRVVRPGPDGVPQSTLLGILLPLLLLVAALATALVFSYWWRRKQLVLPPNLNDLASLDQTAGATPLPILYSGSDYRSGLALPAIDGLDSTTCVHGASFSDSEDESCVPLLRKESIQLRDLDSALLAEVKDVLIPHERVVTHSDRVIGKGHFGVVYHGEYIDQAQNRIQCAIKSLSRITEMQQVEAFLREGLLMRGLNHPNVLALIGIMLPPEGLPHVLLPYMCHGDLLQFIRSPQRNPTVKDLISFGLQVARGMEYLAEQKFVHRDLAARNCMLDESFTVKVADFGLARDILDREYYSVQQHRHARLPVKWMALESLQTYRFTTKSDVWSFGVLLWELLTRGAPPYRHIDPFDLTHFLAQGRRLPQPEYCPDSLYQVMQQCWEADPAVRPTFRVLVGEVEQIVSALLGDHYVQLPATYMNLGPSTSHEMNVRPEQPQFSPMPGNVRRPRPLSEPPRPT
Method in brief: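 HeLa cells transiently transfected with sfRON plasmid, then exposed 4 h at 37 °C to a 6-point compound series (typically 10 μM to 3 nM, 0.5% DMSO). Phospho-RON (pY1238/1239) in lysates measured by sandwich ELISA with luminescence. IC50 from 4-parameter fit of percent-of-DMSO-control data, at least duplicate runs.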

Aurora B = target: T2, Aurora B (Homo sapiens, UniProt Q96GD4); experiment: Aurora B cell mechanistic assay (HT-29), phospho-Histone H3 (Ser10) ELISA; assay type: cell-based; conditions: HT-29 cell line; inhibition of phospho-Histone H3 (Ser10); at least duplicate experiments (italicized if single experiment); read-out: Aurora B mech IC50
T2 construct: HT-29 cells grown in complete growth media
T2 sequence (Q96GD4 whole entry): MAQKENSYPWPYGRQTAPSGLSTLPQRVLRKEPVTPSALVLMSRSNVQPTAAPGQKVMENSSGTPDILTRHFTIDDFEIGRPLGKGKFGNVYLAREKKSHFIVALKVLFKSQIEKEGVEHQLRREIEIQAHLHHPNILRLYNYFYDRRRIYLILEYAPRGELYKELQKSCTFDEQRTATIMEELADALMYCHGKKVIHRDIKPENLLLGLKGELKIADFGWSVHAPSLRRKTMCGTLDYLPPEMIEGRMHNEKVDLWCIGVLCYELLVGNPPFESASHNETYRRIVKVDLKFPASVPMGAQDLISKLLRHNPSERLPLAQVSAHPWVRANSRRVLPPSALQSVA
Method in brief: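 HT-29 cells treated 1 h at 37 °C with serially diluted compound, then 100 nM Calyculin A added for 30 min. Lysates assayed by phospho-Histone H3 (Ser10) ELISA at 450 nm; normalized to DMSO (100%) and a reference Aurora B inhibitor (full inhibition); IC50 by four-parameter fit.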

Row | Compound | IC50 (RON) | IC50 (Aurora B)
1 | COc1ccc(F)c(Cl)c1[C@@H](C)c1c[nH]c2ncc(-c3cnn(C[C@@H](O)CO)c3C(F)(F)F)cc12 [Example 35, (2R)-3-[4-{3-[(1S)-1-(2-Chloro-3-fluoro-6-methoxyphenyl)ethyl]-1H-pyrrolo[2,3-b]pyridin-5-yl}-5-(trifluoromethyl)-1H-pyrazol-1-yl]propane-1,2-diol] | > 1000 nM | > 1000 nM
2 | Cc1nn(C[C@@H](O)CO)c(C)c1-c1cnc2[nH]cc([C@H](C)c3c(Cl)ccc(F)c3Cl)c2c1 [Example 66, (2R)-3-(4-{3-[(1S)-1-(2,6-Dichloro-3-fluorophenyl)ethyl]-1H-pyrrolo[2,3-b]pyridin-5-yl}-3,5-dimethyl-1H-pyrazol-1-yl)propane-1,2-diol] | 200 to 1000 nM | > 1000 nM
3 | COc1ccc(F)c(Cl)c1[C@@H](C)c1c[nH]c2ncc(-c3cn(CC(C)(C)O)nc3C)cc12 [Example 7, 1-(4-{3-[(1S)-1-(2-Chloro-3-fluoro-6-methoxyphenyl)ethyl]-1H-pyrrolo[2,3-b]pyridin-5-yl}-3-methyl-1H-pyrazol-1-yl)-2-methylpropan-2-ol] | 200 to 1000 nM | 200 to 1000 nM
4 | COc1ccc(F)c(Cl)c1[C@@H](C)c1c[nH]c2ncc(-c3cn(C[C@@H](O)CO)nc3C(F)(F)F)cc12 [Example 34, (2R)-3-[4-{3-[(1S)-1-(2-Chloro-3-fluoro-6-methoxyphenyl)ethyl]-1H-pyrrolo[2,3-b]pyridin-5-yl}-3-(trifluoromethyl)-1H-pyrazol-1-yl]propane-1,2-diol] | > 1000 nM | > 1000 nM

Further lines, results first:

Row | IC50 (RON) | IC50 (Aurora B) | Compound
5 | 200 to 1000 nM | 200 to 1000 nM | COc1ccc(F)c(Cl)c1[C@@H](C)c1c[nH]c2ncc(-c3cnn([C@H]4CC[C@@H](N(C)C)CC4)c3C)cc12 [Example 54, cis-4-(4-{3-[(1S)-1-(2-Chloro-3-fluoro-6-methoxyphenyl)ethyl]-1H-pyrrolo[2,3-b]pyridin-5-yl}-5-methyl-1H-pyrazol-1-yl)-N,N-dimethylcyclohexanamine]
6 | 200 to 1000 nM | > 1000 nM | COc1ccc(F)c(Cl)c1[C@@H](C)c1c[nH]c2ncc(-c3cn(C)nc3OC)cc12 [Example 61, 3-[(1S)-1-(2-Chloro-3-fluoro-6-methoxyphenyl)ethyl]-5-(3-methoxy-1-methyl-1H-pyrazol-4-yl)-1H-pyrrolo[2,3-b]pyridine]
7 | ≤ 200 nM | 50 to 200 nM | COc1ccc(F)c(Cl)c1[C@@H](C)c1c[nH]c2ncc(-c3cn([C@H]4CC[C@H](C(N)=O)CC4)nc3C)cc12 [Example 19, trans-4-(4-{3-[(1S)-1-(2-Chloro-3-fluoro-6-methoxyphenyl)ethyl]-1H-pyrrolo[2,3-b]pyridin-5-yl}-3-methyl-1H-pyrazol-1-yl)cyclohexanecarboxamide]
8 | 200 to 1000 nM | 200 to 1000 nM | COc1ccc(F)c(Cl)c1[C@@H](C)c1c[nH]c2ncc(-c3cnn(CC(C)(C)O)c3C)cc12 [Example 8, 1-(4-{3-[(1S)-1-(2-Chloro-3-fluoro-6-methoxyphenyl)ethyl]-1H-pyrrolo[2,3-b]pyridin-5-yl}-5-methyl-1H-pyrazol-1-yl)-2-methylpropan-2-ol]
9 | ≤ 200 nM | 50 to 200 nM | CNC(=O)[C@H]1CC[C@H](n2cc(-c3cnc4[nH]cc([C@H](C)c5c(OC)ccc(F)c5Cl)c4c3)c(C)n2)CC1 [Example 22, trans-4-(4-{3-[(1S)-1-(2-Chloro-3-fluoro-6-methoxyphenyl)ethyl]-1H-pyrrolo[2,3-b]pyridin-5-yl}-3-methyl-1H-pyrazol-1-yl)-N-methylcyclohexanecarboxamide]
10 | 200 to 1000 nM | > 1000 nM | COc1ccc(F)c(Cl)c1[C@@H](C)c1c[nH]c2ncc(-c3cnn([C@H]4CC[C@@H](O)CC4)c3C)cc12 [Example 52, cis-4-(4-{3-[(1S)-1-(2-Chloro-3-fluoro-6-methoxyphenyl)ethyl]-1H-pyrrolo[2,3-b]pyridin-5-yl}-5-methyl-1H-pyrazol-1-yl)cyclohexanol]
